According to article PMC8766756, “Insights on Cancer Cell Inhibition, Subcellular Activities, and Kinase Profile of Phenylacetamides Pending 1H-Imidazol-5-One Variants” (Frontiers in Pharmacology, 2022):
“Also recorded” adds a separate entry of the source.

Legend:
[1] = system: ERK1/2 (T202/Y204, T185/Y187); experiment: Human Phospho-Kinase Array in HL60 cells; assay type: cell-based
Description: (§1) We also measured changes in kinase activities of some selected Ser/Thr kinases using the Human Phospho-Kinase Array® kit (R&D Systems) which encompasses phosphoprotein-specific capture antibodies spotted at a certain location (in duplicates) on a nitrocellulose membrane. The signal intensities, detected by a sandwich immunoassay, are proportional to the amount of each phosphokinase in the cell lysate (Figure 8).
(§2) FIGURE 8 Phosphokinase proteome profile of KIM-161 in HL60 cell line. (A) Cells lysates were prepared after 10 h treatment with KIM-161 and applied to the membranes prespotted with the different antibodies. […] The height of each bar represents the average intensity of certain protein signals in treated cells/untreated × 100. Therefore, the dotted line represents the control percentage (100%).
(§3) The phosphorylation profile of 48 kinases was performed using the Proteome Profiler Human Phospho-Kinase Array an antibody array kit, by R&D Systems (Minneapolis, MN, USA). Total protein was extracted from the cell lysates treated with 365 nM KIM-161 for 10 h using the lysis buffer provided in the kit and quantified using the Bio-Rad DC Protein Assay kit (USA). The nitrocellulose membrane set (A&B), pre-spotted with the capture antibodies, was first blocked with 1 ml of Array buffer 1 at RT for 1 h in an 8-well multi-dish on a rocking platform shaker. Approximately 600 µg of protein concentrate (<334 µL) was diluted in the Array buffer 1 to a final volume of 2 ml. 1 ml of the protein sample was added onto the membrane set and incubated overnight at 4°C on a rocking platform shaker. Subsequently, membranes were washed with 15 ml of 1× wash buffer thrice for 5 min at RT, and the excess buffer was completely drained. The membranes A&B were then incubated with appropriate detection antibody cocktails A&B that were reconstituted using the 1× Array buffer 2/3 for 2 h at RT. After the incubation was complete, the membranes were washed with 15 ml of 1× wash buffer thrice for 5 min at RT, and the excess buffer was completely drained. Streptavidin-HRP (1:2000), diluted in 1× Array buffer 2/3, was applied onto the membranes and incubated for 30 min at RT on a rocking platform shaker. The membranes were washed thrice, and Chemi Reagent 1&2 were applied in equal volumes for detection on C-DiGit®Blot Scanner (LI-COR Odyssey Imaging Systems, Lincoln, Nebraska, USA) using the Image Studio 5.0 software.

STAT2 (Y689) = experiment: Human Phospho-Kinase Array in HL60 cells; assay type: cell-based
Description: as §1, §2, §3

CREB = experiment: Human Phospho-Kinase Array in HL60 cells; assay type: cell-based
Description: as §1, §2, §3

AMPKα1 = experiment: Human Phospho-Kinase Array in HL60 cells; assay type: cell-based
Description: as §1, §2, §3

GSK-3α/β (S21/S9) = experiment: Human Phospho-Kinase Array in HL60 cells; assay type: cell-based
Description: as §1, §2, §3

bovine brain tubulin = experiment: Tubulin polymerization assay (cell-free); assay type: biochemical; details: 10 and 30 µM, compared with KX2-391 (10 µM)
Procedure: KX2-391 (KX-01), the prototype of KIM-161, is a known powerful tubulin polymerization inhibitor. Consequently, we investigated its effect on tubulin polymerization using a cell-free assay that also included paclitaxel as another positive reference that affects tubulin function through stabilization of tubulin polymers (Figure 9).
FIGURE 9 Tubulin polymerization assay for KIM-161 at 10 and 30 µM compared to paclitaxel (10 µM) and KX2-391 (10 µM) as positive controls. The negative control (vehicle) contained DMSO (1% v/v). The effect on the tubulin assembly was monitored turbidometrically at 340 nm every 30 s for 60 min at 37°C. Fold inhibition of tubulin polymerization was calculated using the V max value for each reaction. The results represent the mean for three separate experiments.
The assembly of purified bovine tubulin was monitored using a kit BK006 purchased from Cytoskeleton Inc. (Denver, CO, USA). The assay was carried out in accordance with the manufacturer's instructions in the tubulin polymerization assay kit manual using the standard assay conditions. The values reported represent the average values from two independent assays. […] Therefore, tubulin assembly was monitored turbidimetrically at 340 nm at 37°C in a Spectramax 340 PC spectrophotometer (Molecular Devices, Sunnyvale, CA, USA). The absorbance was measured at 30-s intervals for 60 min.

[2] = ERK1/2 spot, HL60 cells, 10 h (KIM-161 365 nM)
[3] = HL60, 365 nM, 10 h, vs untreated, listed as KIM-161
[4] = STAT2 spot, HL60 cells, 10 h (KIM-161 365 nM)
[5] = CREB spot, HL60 cells, 10 h (KIM-161 365 nM)
[6] = AMPKα1 spot, HL60 cells, 10 h (KIM-161 365 nM)
[7] = GSK-3α/β spot, HL60 cells, 10 h (KIM-161 365 nM)

In the case of COc1ccc(/C=C2\N=C(C)N(c3ccc(CC(=O)NCc4ccccc4)cc3)C2=O)cc1 [Compound 4c, (Z)-N-Benzyl-2-(4-(4-(4-methoxybenzylidene)-2-methyl-5-oxo-4,5-dihydro-1H-imidazol-1-yl)phenyl)acetamide], the “Normalized to HK” value [1, 2] is reported as 0.0000, the “Normalized x10K” value [1, 2] is reported as 0.00 and the Signal [1, 2] is reported as 0.00. The “change of ERK1/2 phosphokinase signal” value [1, 3] was “strongly suppresses; also recorded: strong downregulation”, the activity at 0.365 µM ([1]; Homo sapiens, HL-60, ERK1/2 spot, HL60 cells, 10 h (KIM-161 365 nM), untreated = 100, read-out: % Ctrl) was 0% and the “change of STAT2 phosphokinase signal” value (STAT2 (Y689); [3]) was “strongly suppresses; also recorded: strong downregulation”. The activity at 0.365 µM (STAT2 (Y689); Homo sapiens, HL-60, STAT2 spot, HL60 cells, 10 h (KIM-161 365 nM), untreated = 100, read-out: % Ctrl) was 0%, the “Normalized to HK” value (STAT2 (Y689); [4]) was 0.00 and the “Normalized x10K” value (STAT2 (Y689); [4]) was 0.00. The Signal (STAT2 (Y689); [4]) was 0.00, the “Normalized to HK” value (CREB; [5]) was 0.0405 and the “Normalized x10K” value (CREB; [5]) was 405.44. For the same molecule, the Signal (CREB; [5]) was 142.45, the “reduction of CREB activity” value (CREB; HL60, 365 nM, 10 h, vs untreated) was 36.7% and the activity at 0.365 µM (CREB; Homo sapiens, HL-60, CREB spot, HL60 cells, 10 h (KIM-161 365 nM), untreated = 100, read-out: % Ctrl) was 63.3%. For the same molecule, the “Normalized to HK” value (AMPKα1; [6]) was 0.0019, the “Normalized x10K” value (AMPKα1; [6]) was 18.91 and the Signal (AMPKα1; [6]) was 6.64. For the same molecule, the “change of AMPKα1 phosphorylation” value (AMPKα1; [3]) was “downregulated; also recorded: to a quarter of its level compared to the control”, the activity at 0.365 µM (AMPKα1; Homo sapiens, HL-60, AMPKα1 spot, HL60 cells, 10 h (KIM-161 365 nM), untreated = 100, read-out: % Ctrl) was 27.9% and the “Normalized to HK” value (GSK-3α/β (S21/S9); [7]) was 0.0000. The “Normalized x10K” value (GSK-3α/β (S21/S9); [7]) was 0.00, the Signal (GSK-3α/β (S21/S9); [7]) was 0.00 and the “change of GSK-3α/β phosphokinase signal” value (GSK-3α/β (S21/S9); [3]) was “strongly suppresses; also recorded: strong downregulation”. The activity at 0.365 µM (GSK-3α/β (S21/S9); Homo sapiens, HL-60, GSK-3α/β spot, HL60 cells, 10 h (KIM-161 365 nM), untreated = 100, read-out: % Ctrl) was 0% and the tubulin polymerization inhibition (bovine brain tubulin) was “much weaker tubulin polymerization inhibition than KX2-391”.
